One may read the IC50 as the concentration needed to halve the response being measured.

SMILES strings stand for the structures. Non-standard residues stand in square brackets, D forms with d. Residues, ends and D or L forms follow the SMILES beside them. *: point of attachment. Dolaproine = CO[C@@H]([C@@H]1CCCN1)[C@@H](C)C(=O)O; Dil = CC[C@H](C)[C@H](NC)[C@@H](CC(=O)O)OC; X2 = C[C@@H](N*)[C@@H](O)c1ccccc1; NMeV = CN[C@H](C(=O)O)C(C)C

Series [1] can be described thus: Serum stability in murine serum (HPLC). The class given is in vitro ADME, mouse. As to conditions: 48 h. On the procedure: Serum stability of prodrugs was analyzed using a modified method from previously published work. Chu et al., 2012. Prodrug stock solution (8 μL, 10 mM) was incubated with 100% mouse serum (final concentration of the serum was 80% after the mixing with prodrug solution) at 37° C. Aliquots (50 μL) were periodically removed at 2, 4, 8, 24, and 48 h, and diluted with cold ice CH3OH (100 μL) to precipitate proteins. The samples were centrifuged, and the supernatants were analyzed by HPLC. Stability was calculated based on the peak area of the prodrug at each time point. Experiments were performed in triplicate.

The subject of another series is PSMA− PC3 flu cells. As to the kind of experiment: In vitro cytotoxicity (XTT cell proliferation assay), PSMA- PC3 flu cells. The series is classed as cell-based, human.
Series [2] can be described thus: In vivo toxicity in healthy mice (weight, survival, histopathology). To be noted: healthy C57BL/6 mice, MMAE (free drug) 80 μg/kg IP daily for 30 days. More on the design: species or system C57BL/6 mice. On the procedure: The potential toxicity of SBPD-1 was evaluated in immunocompetent animals. MMAE (80 μg/kg), SBPD-1 (160 μg/kg), and 5% DMSO were administered to healthy C57BL/6 mice (n=5). Animals were monitored for 80 days after initiation of administration. […] Lung, liver, kidneys, salivary and lacrimal glands were removed from all tested animals at Day 80 after initiation of SBPD-1 treatment. […] Peripheral blood also was obtained from mice injected with vehicle, SBPD-1, and healthy untreated animals, and prepared serum for chemistry studies (n=5).
Male C57BL/6 mice were purchased from Jackson Laboratory. Ten-week-old mice were injected with the indicated doses of MMAE (formulated in 5% DMSO), SBPD-1 (formulated in saline) or 5% DMSO intraperitoneally (daily for 30 days, n=5). Animals were monitored daily for weight changes and other abnormalities for 80 days. Animals were euthanized in a CO2 chamber at day 80, and blood, lung, liver, kidney, salivary gland, and lacrimal gland were collected for complete blood counts, blood chemistry, and histopathological analyses. Complete blood counts including white blood cells (WBC), red blood cells (RBC), hemoglobin (HGB), hematocrit (HCT), mean corpuscular volume (MCV), mean corpuscular hemoglobin (MCH), mean corpuscular hemoglobin concentration (MCHC), and platelet (PLT) were measured using scil Vet ABC™ Hematology Analyzer (scil animal care company, Gurnee, IL). Blood chemistry parameters including blood urea nitrogen (BUN), glucose (GLU), Alkaline Phosphatase (ALP), total protein (T-Pro), Alanine aminotransferase (ALT) and Creatinine (Cre) were measured with Spotchem EZ chemistry analyzer (Arkray USA, Edina, MN). Hematoxylin and eosin slides were generated for five organs and examined by certified veterinary pathologist.

The next series relates to PSMA+ PC3 PIP cells. As to the kind of experiment: In vitro cytotoxicity (XTT cell proliferation assay), PSMA+ PC3 PIP cells. The class given is cell-based, human.

In series [1], `CC[C@H](C)[C@@H](C(CC(=O)N1CCC[C@H]1[C@H](OC)[C@@H](C)C(=O)N[C@H](C)[C@@H](O)c1ccccc1)OC)N(C)C(=O)[C@@H](NC(=O)[C@H](C(C)C)N(C)C(=O)CC[C@H](NC(=O)CCCCCCC(=O)NCCCC[C@H](NC(=O)N[C@@H](CCC(=O)O)C(=O)O)C(=O)O)C(=O)O)C(C)C` (stereo partly drawn) [SBPD-2, (4S,7S,10S,15S,30S,34S)-4-((S)-Sec-butyl)-3-(2-((S)-2-((1R,2R)-3-(((1S,2R)-1-hydroxy-1-phenylpropan-2-yl)amino)-1-methoxy-2-methyl-3-oxopropyl)pyrrolidin-1-yl)-2-oxoethyl)-7,10-diisopropyl-5,11-dimethyl-6,9,12,17,24,32-hexaoxo-2-oxa-5,8,11,16,25,31,33-heptaazahexatriacontane-15,30,34,36-tetracarboxylic acid] had a remained intact of 90%.
In the case of `CC[C@H](C)[C@@H]([C@@H](CC(=O)N1CCC[C@H]1[C@H](OC)[C@@H](C)C(=O)N[C@H](C)[C@@H](O)c1ccccc1)OC)N(C)C(=O)[C@@H](NC(=O)[C@@H](NC)C(C)C)C(C)C` [MMAE, monomethyl auristatin E] (H-[NMeV]V[Dil][Dolaproine]-X2), the IC50 came to 0.04 nM in the series with PSMA− PC3 flu cells and 0.0392 nM in the series with PSMA+ PC3 PIP cells. Also, in series [2], the “toxicity (weight loss, euthanasia)” value was “severe toxicity”.

Values taken from patent US20230414762A1, “PROSTATE-SPECIFIC MEMBRANE ANTIGEN (PSMA)-TARGETED PRODRUG FOR SELECTIVE KILLING OF CELLS […]” (The Johns Hopkins University, priority 2020, published 2023).
